# Results as given in US20220378706A1, “PHARMACEUTICAL COMPOSITION COMPRISING PDE9 INHIBITOR” (Eisai R&D Management Co., Ltd., priority 2017, published 2022).
# Read-outs that look alike come from different tables or passages of the source.
# Assay: Multiple ascending dose study: plasma pharmacokinetics
# Type: in vivo
# Conditions: human, po; for Tmax: read-out: tmax Median
# Description: Four sequential cohorts of healthy participants (≥50 years and ≤85 years old) were treated with multiple ascending doses of Compound A up to the maximum tolerated dose (MTD). A total of 6 participants per cohort were randomized to Compound A. Proposed doses of Compound A were:
# Participants received Compound A capsules, orally once daily (QD) on Days 1 to 14 after an overnight fast of at least 10 hours. Compound A was administered orally with 240 milliliter (mL) (8 fluid ounces) of water.
# 1) Maximum drug concentration (Cmax) [Time Frame: Day 1 and Day 14]
# Blood samples were collected on Day 1 at predose and postdose 0.5 (30 minutes), 1, 1.5, 2, 3, 4, 5, 6, 8, 12, and 18 hours; Day 14 (at predose and postdose 0.5, 1, 1.5, 2, 3, 4, 5, 6, 8, 12, and 18 hours); and Day 15 (24 hours postdose from Day 14).
# 2) Mean time to reach maximum (peak) drug concentration (tmax) [Time Frame: Day 1 and Day 14]
# 4) Mean area under the concentration-time curve from zero time extrapolated to infinity (AUC(0-inf)) [Time Frame: Day 14]
compound,measurement,setting,value
"COc1ncc(C)c(-c2ccc3c(c2)[nH]c(=O)c2cnn([C@H]4CCOC4)c23)c1C [Compound A, (S)-7-(2-methoxy-3,5-dimethylpyridin-4-yl)-1-(tetrahydrofuran-3-yl)-1H-pyrazolo[4,3-c]quin olin-4(5H)-one]",Cmax,"50 mg, Part C, 50 mg oral, read-out: Cmax GM (% CV)",594 ng/mL
same,Cmax,"50 mg, Part C, 50 mg oral, read-out: Cmax Mean (SD)",608 ng/mL
same,Cmax,"50 mg, Part C, 50 mg oral, read-out: Cmax Median",590 ng/mL
same,Tmax,"50 mg, Part C, 50 mg oral",1.98 h
same,AUC(0-t),"100 mg, Day 1, 100 mg QD oral, read-out: AUC(0-24 h) GM (% CV)",5230 ng·h/mL
same,AUC(0-t),"100 mg, Day 1, 100 mg QD oral, read-out: AUC(0-24 h) Mean (SD)",5250 ng·h/mL
same,AUC(0-t),"100 mg, Day 1, 100 mg QD oral, read-out: AUC(0-24 h) Median",5180 ng·h/mL
same,Cmax,"100 mg, Day 1, 100 mg QD oral, read-out: Cmax GM (% CV)",366 ng/mL
same,Cmax,"100 mg, Day 1, 100 mg QD oral, read-out: Cmax Mean (SD)",373 ng/mL
same,Cmax,"100 mg, Day 1, 100 mg QD oral, read-out: Cmax Median",344 ng/mL
same,Tmax,"100 mg, Day 1, 100 mg QD oral",2.53 h
same,AUC(0-t),"100 mg, Day 14, 100 mg QD oral, read-out: AUC(0-24 h) GM (% CV)",16600 ng·h/mL
same,AUC(0-t),"100 mg, Day 14, 100 mg QD oral, read-out: AUC(0-24 h) Mean (SD)",16900 ng·h/mL
same,AUC(0-t),"100 mg, Day 14, 100 mg QD oral, read-out: AUC(0-24 h) Median",16800 ng·h/mL
same,AUC(0-inf),"100 mg, Day 14, 100 mg QD oral, read-out: AUC(0-inf) GM (% CV)",56400 ng·h/mL
same,AUC(0-inf),"100 mg, Day 14, 100 mg QD oral, read-out: AUC(0-inf) Mean (SD)",58600 ng·h/mL
same,AUC(0-inf),"100 mg, Day 14, 100 mg QD oral, read-out: AUC(0-inf) Median",62700 ng·h/mL
same,Cmax,"100 mg, Day 14, 100 mg QD oral, read-out: Cmax GM (% CV)",1010 ng/mL
same,Cmax,"100 mg, Day 14, 100 mg QD oral, read-out: Cmax Mean (SD)",1020 ng/mL
same,Cmax,"100 mg, Day 14, 100 mg QD oral, read-out: Cmax Median",1030 ng/mL
same,Tmax,"100 mg, Day 14, 100 mg QD oral",2.56 h
same,AUC(0-t),"200 mg, Day 1, 200 mg QD oral, read-out: AUC(0-24 h) GM (% CV)",8650 ng·h/mL
same,AUC(0-t),"200 mg, Day 1, 200 mg QD oral, read-out: AUC(0-24 h) Mean (SD)",9050 ng·h/mL
same,AUC(0-t),"200 mg, Day 1, 200 mg QD oral, read-out: AUC(0-24 h) Median",10400 ng·h/mL
same,Cmax,"200 mg, Day 1, 200 mg QD oral, read-out: Cmax GM (% CV)",687 ng/mL
same,Cmax,"200 mg, Day 1, 200 mg QD oral, read-out: Cmax Mean (SD)",740 ng/mL
same,Cmax,"200 mg, Day 1, 200 mg QD oral, read-out: Cmax Median",813 ng/mL
same,Tmax,"200 mg, Day 1, 200 mg QD oral",2.01 h
same,AUC(0-t),"200 mg, Day 14, 200 mg QD oral, read-out: AUC(0-24 h) GM (% CV)",22800 ng·h/mL
same,AUC(0-t),"200 mg, Day 14, 200 mg QD oral, read-out: AUC(0-24 h) Mean (SD)",23100 ng·h/mL
same,AUC(0-t),"200 mg, Day 14, 200 mg QD oral, read-out: AUC(0-24 h) Median",21300 ng·h/mL
same,AUC(0-inf),"200 mg, Day 14, 200 mg QD oral, read-out: AUC(0-inf) GM (% CV)",70500 ng·h/mL
same,AUC(0-inf),"200 mg, Day 14, 200 mg QD oral, read-out: AUC(0-inf) Mean (SD)",72200 ng·h/mL
same,AUC(0-inf),"200 mg, Day 14, 200 mg QD oral, read-out: AUC(0-inf) Median",61900 ng·h/mL
same,Cmax,"200 mg, Day 14, 200 mg QD oral, read-out: Cmax GM (% CV)",1680 ng/mL
same,Cmax,"200 mg, Day 14, 200 mg QD oral, read-out: Cmax Mean (SD)",1730 ng/mL
same,Cmax,"200 mg, Day 14, 200 mg QD oral, read-out: Cmax Median",1950 ng/mL
same,Tmax,"200 mg, Day 14, 200 mg QD oral",2 h
same,AUC(0-t),"400 mg, Day 1, 400 mg QD oral, Japanese, read-out: AUC(0-24 h) GM (% CV)",18300 ng·h/mL
same,AUC(0-t),"400 mg, Day 1, 400 mg QD oral, Japanese, read-out: AUC(0-24 h) Mean (SD)",18400 ng·h/mL
same,AUC(0-t),"400 mg, Day 1, 400 mg QD oral, Japanese, read-out: AUC(0-24 h) Median",18900 ng·h/mL
same,Cmax,"400 mg, Day 1, 400 mg QD oral, Japanese, read-out: Cmax GM (% CV)",1510 ng/mL
same,Cmax,"400 mg, Day 1, 400 mg QD oral, Japanese, read-out: Cmax Mean (SD)",1520 ng/mL
same,Cmax,"400 mg, Day 1, 400 mg QD oral, Japanese, read-out: Cmax Median",1510 ng/mL
same,Tmax,"400 mg, Day 1, 400 mg QD oral, Japanese",2 h
same,AUC(0-t),"400 mg, Day 1, 400 mg QD oral, Non-Japanese, read-out: AUC(0-24 h) GM (% CV)",14500 ng·h/mL
same,AUC(0-t),"400 mg, Day 1, 400 mg QD oral, Non-Japanese, read-out: AUC(0-24 h) Mean (SD)",14600 ng·h/mL
same,AUC(0-t),"400 mg, Day 1, 400 mg QD oral, Non-Japanese, read-out: AUC(0-24 h) Median",14700 ng·h/mL
same,Cmax,"400 mg, Day 1, 400 mg QD oral, Non-Japanese, read-out: Cmax GM (% CV)",1100 ng/mL
same,Cmax,"400 mg, Day 1, 400 mg QD oral, Non-Japanese, read-out: Cmax Mean (SD)",1100 ng/mL
same,Cmax,"400 mg, Day 1, 400 mg QD oral, Non-Japanese, read-out: Cmax Median",1140 ng/mL
same,Tmax,"400 mg, Day 1, 400 mg QD oral, Non-Japanese",1.76 h
same,AUC(0-t),"400 mg, Day 14, 400 mg QD oral, Japanese, read-out: AUC(0-24 h) GM (% CV)",42700 ng·h/mL
same,AUC(0-t),"400 mg, Day 14, 400 mg QD oral, Japanese, read-out: AUC(0-24 h) Mean (SD)",42900 ng·h/mL
same,AUC(0-t),"400 mg, Day 14, 400 mg QD oral, Japanese, read-out: AUC(0-24 h) Median",43200 ng·h/mL
same,AUC(0-inf),"400 mg, Day 14, 400 mg QD oral, Japanese, read-out: AUC(0-inf) GM (% CV)",122000 ng·h/mL
same,AUC(0-inf),"400 mg, Day 14, 400 mg QD oral, Japanese, read-out: AUC(0-inf) Mean (SD)",125000 ng·h/mL
same,AUC(0-inf),"400 mg, Day 14, 400 mg QD oral, Japanese, read-out: AUC(0-inf) Median",120000 ng·h/mL
same,Cmax,"400 mg, Day 14, 400 mg QD oral, Japanese, read-out: Cmax GM (% CV)",3080 ng/mL
same,Cmax,"400 mg, Day 14, 400 mg QD oral, Japanese, read-out: Cmax Mean (SD)",3100 ng/mL
same,Cmax,"400 mg, Day 14, 400 mg QD oral, Japanese, read-out: Cmax Median",3250 ng/mL
same,Tmax,"400 mg, Day 14, 400 mg QD oral, Japanese",1.5 h
same,AUC(0-t),"400 mg, Day 14, 400 mg QD oral, Non-Japanese, read-out: AUC(0-24 h) GM (% CV)",39200 ng·h/mL
same,AUC(0-t),"400 mg, Day 14, 400 mg QD oral, Non-Japanese, read-out: AUC(0-24 h) Mean (SD)",40300 ng·h/mL
same,AUC(0-t),"400 mg, Day 14, 400 mg QD oral, Non-Japanese, read-out: AUC(0-24 h) Median",43900 ng·h/mL
same,AUC(0-inf),"400 mg, Day 14, 400 mg QD oral, Non-Japanese, read-out: AUC(0-inf) GM (% CV)",121000 ng·h/mL
same,AUC(0-inf),"400 mg, Day 14, 400 mg QD oral, Non-Japanese, read-out: AUC(0-inf) Mean (SD)",135000 ng·h/mL
same,AUC(0-inf),"400 mg, Day 14, 400 mg QD oral, Non-Japanese, read-out: AUC(0-inf) Median",141000 ng·h/mL
same,Cmax,"400 mg, Day 14, 400 mg QD oral, Non-Japanese, read-out: Cmax GM (% CV)",2740 ng/mL
same,Cmax,"400 mg, Day 14, 400 mg QD oral, Non-Japanese, read-out: Cmax Mean (SD)",2820 ng/mL
same,Cmax,"400 mg, Day 14, 400 mg QD oral, Non-Japanese, read-out: Cmax Median",3050 ng/mL
same,Tmax,"400 mg, Day 14, 400 mg QD oral, Non-Japanese",1.79 h
